Measurements reported in the supplement of paper PMC4862054.

Legend:
Conditions in all cases: incubation time: 72 h
MDA-MB-453 [1] = assay: normalised response (% of control), CellTiter-Glo; higher = more viable cells (100 = DMSO, 0 = benzethonium chloride kill control)
Outline: (§1)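 Breast cancer cell lines, seeded at 20 µl suspension per well, were incubated for 72 h in 384-well plates containing compound at 5 concentrations. These concentrations rose in 10-fold steps over a 10,000-fold range set for each compound. CellTox Green fluorescence (485/520 nm) was read, then CellTiter-Glo luminescence after 10 min at room temperature, and each plate was normalised to 0.1 % DMSO (100) and a positive kill control (0). Values are normalised signals, each at one concentration.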

HCC1937 [2] = assay: as above
Outline: as §1

DU-4475 [3] = assay: as above
Outline: as §1

SK-BR-3 = assay: as above
Outline: as §1

MDA-MB-231 [4] = assay: as above
Outline: as §1

MDA-MB-468 [5] = assay: as above
Outline: as §1

CAL-85-1 [6] = assay: as above
Outline: as §1

HCC1599 [7] = assay: as above
Outline: as §1

MCF-10A [8] = assay: as above
Outline: as §1

CAL-148 [9] = assay: as above
Outline: as §1

MDA-MB-436 [10] = assay: as above
Outline: as §1

HDQ-P1 [11] = assay: as above
Outline: as §1

HCC1143 [12] = assay: as above
Outline: as §1

CAL-120 [13] = assay: as above
Outline: as §1

CAL-51 [14] = assay: as above
Outline: as §1

BT-549 [15] = assay: as above
Outline: as §1

Hs578T [16] = assay: as above
Outline: as §1

MFM-223 [17] = assay: as above
Outline: as §1

BT-474 [18] = assay: as above
Outline: as §1

MDA-MB-453 [19] = assay: normalised response (% of control), CellTox Green; higher = less cell death (100 = DMSO, 0 = benzethonium chloride kill control)
Outline: as §1

HCC1937 [20] = assay: as above
Outline: as §1

DU-4475 [21] = assay: as above
Outline: as §1

MDA-MB-231 [22] = assay: as above
Outline: as §1

MDA-MB-468 [23] = assay: as above
Outline: as §1

CAL-85-1 [24] = assay: as above
Outline: as §1

HCC1599 [25] = assay: as above
Outline: as §1

MCF-10A [26] = assay: as above
Outline: as §1

CAL-148 [27] = assay: as above
Outline: as §1

MDA-MB-436 [28] = assay: as above
Outline: as §1

HDQ-P1 [29] = assay: as above
Outline: as §1

HCC1143 [30] = assay: as above
Outline: as §1

CAL-120 [31] = assay: as above
Outline: as §1

CAL-51 [32] = assay: as above
Outline: as §1

BT-549 [33] = assay: as above
Outline: as §1

Hs578T [34] = assay: as above
Outline: as §1

MFM-223 [35] = assay: as above
Outline: as §1

BT-474 [36] = assay: as above
Outline: as §1

Row | Structure (SMILES) | normalised response (MDA-MB-453 [1]) [%] | normalised response (HCC1937 [2]) [%] | normalised response (DU-4475 [3]) [%] | normalised response (SK-BR-3) [%] | normalised response (MDA-MB-231 [4]) [%] | normalised response (MDA-MB-468 [5]) [%] | normalised response (CAL-85-1 [6]) [%] | normalised response (HCC1599 [7]) [%] | normalised response (MCF-10A [8]) [%] | normalised response (CAL-148 [9]) [%] | normalised response (MDA-MB-436 [10]) [%] | normalised response (HDQ-P1 [11]) [%] | normalised response (HCC1143 [12]) [%] | normalised response (CAL-120 [13]) [%] | normalised response (CAL-51 [14]) [%] | normalised response (BT-549 [15]) [%] | normalised response (Hs578T [16]) [%] | normalised response (MFM-223 [17]) [%] | normalised response (BT-474 [18]) [%] | normalised response (MDA-MB-453 [19]) [%] | normalised response (HCC1937 [20]) [%] | normalised response (DU-4475 [21]) [%] | normalised response (MDA-MB-231 [22]) [%] | normalised response (MDA-MB-468 [23]) [%] | normalised response (CAL-85-1 [24]) [%] | normalised response (HCC1599 [25]) [%] | normalised response (MCF-10A [26]) [%] | normalised response (CAL-148 [27]) [%] | normalised response (MDA-MB-436 [28]) [%] | normalised response (HDQ-P1 [29]) [%] | normalised response (HCC1143 [30]) [%] | normalised response (CAL-120 [31]) [%] | normalised response (CAL-51 [32]) [%] | normalised response (BT-549 [33]) [%] | normalised response (Hs578T [34]) [%] | normalised response (MFM-223 [35]) [%] | normalised response (BT-474 [36]) [%]
1 | COc1ccc(-c2cc3c(C)nc(N)nc3n([C@H]3CC[C@H](OCCO)CC3)c2=O)cn1 (100 nM) | 55.7 | 74.5 | 83.2 | 42 | 64.8 | 68.8 | 68.9 | 88.3 | 58 | 74.5 | 77 | 66.3 | 76.8 | 67.7 | 53.4 | 69.5 | 73.7 | 72.3 | 67.2 | 98.1 | 107 | 96.2 | 37.5 | 31 | 91.3 | 90.3 | 85.6 | 80.1 | 97.9 | 88.6 | 66.1 | 95.7 | 85.1 | 112 | 89.6 | 96.2 | 94.4
2 | CCC/C=C/C=C/C(=O)O[C@H]1/C(=C/C(=O)OC)C[C@H]2C[C@H]([C@@H](C)O)OC(=O)C[C@H](O)C[C@@H]3C[C@H](OC(C)=O)C(C)(C)[C@](O)(C[C@@H]4C/C(=C/C(=O)OC)C[C@H](/C=C/C(C)(C)[C@]1(O)O2)O4)O3 [Bryostatin 1] (1 nM) | 103 | 93 | 91.6 | 66.2 | 95.9 | 99.8 | 95.5 | 99.3 | 107 | 116 | 102 | 88.6 | 102 | 103 | 58 | 101 | 79.6 | 104 | 92.3 | 94.6 | 123 | 106 | 113 | 105 | 97.7 | 111 | 98.5 | 111 | 100 | 75.6 | 117 | 103 | 91 | 111 | 94 | 104 | 86.8
3 | CCN(CC)CCNC(=O)c1c(C)[nH]c(/C=C2\C(=O)Nc3ccc(F)cc32)c1C [Sunitinib] (10 nM) | 97.4 | 99.2 | 104 | 101 | 107 | 102 | 103 | 96.3 | 98.5 | 106 | 96.9 | 99.3 | 108 | 109 | 98.8 | 108 | 103 | 105 | 101 | 107 | 66.9 | 98.4 | 104 | 141 | 89.5 | 114 | 109 | 105 | 103 | 111 | 57.7 | 99.3 | 108 | 92.9 | 82.4 | 98 | 100
4 | Cc1nc(Nc2ncc(C(=O)Nc3c(C)cccc3Cl)s2)cc(N2CCN(CCO)CC2)n1 [Dasatinib] (10 nM) | 99.5 | 90.5 | 99.4 | 101 | 70.6 | 92.2 | 95.7 | 94.3 | 71.5 | 99.2 | 97.1 | 74.8 | 90.2 | 93.7 | 82 | 97.2 | 94.3 | 95 | 74.5 | 106 | 93.1 | 110 | 84.2 | 107 | 102 | 97.7 | 58.3 | 93.9 | 98 | 96.7 | 56.7 | 100 | 86.6 | 111 | 84.7 | 98.9 | 102
5 | COc1cc(CCc2cc(NC(=O)c3ccc(N4CC(C)NC(C)C4)cc3)n[nH]2)cc(OC)c1 (stereo unspecified) [AZD4547] (10 nM) | 95.7 | 94.8 | 88.8 | 92.3 | 96.4 | 98.3 | 103 | 104 | 90.3 | 99.5 | 105 | 98.9 | 99.3 | 95.8 | 111 | 98.4 | 89.8 | 70.8 | 106 | 104 | 82.4 | 98.2 | 94.2 | 158 | 99.2 | 93.9 | 79.9 | 51.3 | 55.9 | 104 | 91.2 | 102 | 95 | 106 | 103 | 92.8 | 95.9
6 | Cn1cc(CNCC2CCN(c3ncc(C(=O)NO)cn3)CC2)c2ccccc21 [Quisinostat] (10 nM) | 56.9 | 85.2 | 83.9 | 70.1 | 103 | 91.2 | 72.5 | 89.8 | 78.8 | 87.6 | 87.2 | 75.4 | 75.8 | 86.2 | 99.2 | 88 | 85.7 | 103 | 106 | 97.7 | 114 | 97.8 | 101 | 57.7 | 77.9 | 104 | 96.7 | 95.8 | 92.3 | 109 | 114 | 91.4 | 126 | 95.5 | 88.8 | 103 | 93
7 | CNC(=O)c1cc(Oc2ccc(NC(=O)Nc3ccc(Cl)c(C(F)(F)F)c3)cc2)ccn1 [Sorafenib] (10 nM) | 100 | 95.2 | 101 | 103 | 105 | 115 | 102 | 108 | 108 | 107 | 105 | 107 | 102 | 112 | 95.9 | 108 | 98.8 | 106 | 97.8 | 106 | 66.5 | 98.4 | 108 | 97.8 | 102 | 91.9 | 66.7 | 103 | 103 | 107 | 95.9 | 96 | 106 | 108 | 95 | 101 | 99.3
8 | C[C@]12O[C@H](C[C@]1(O)CO)n1c3ccccc3c3c4c(c5c6ccccc6n2c5c31)CNC4=O [Lestaurtinib] (10 nM) | 81.1 | 94.3 | 98 | 82.4 | 101 | 78.7 | 102 | 96.9 | 83.7 | 107 | 93.8 | 102 | 105 | 92.2 | 103 | 109 | 90.2 | 97.2 | 98.8 | 101 | 103 | 94.2 | 97.3 | 60 | 96.2 | 90.6 | 91.2 | 87.7 | 78.8 | 104 | 50.3 | 97.4 | 98.4 | 100 | 108 | 103 | 99.3
